The test can be described thus: Agonist activity at human PGI2 receptor assessed as inhibition of ADP-induced platelet aggregation.

The structures appear in SMILES notation.

In BindingDB's records for PubMed 33314936 (n/a, 2020) one finds IC50 data, which are given here for 1 compound.

Consider `CC(C)N(CCCCOCC(=O)NS(C)(=O)=O)c1cnc(-c2ccccc2)c(-c2ccccc2)n1` [ACT-293987], for which the IC50 (commonly the concentration at which inhibition is half-maximal) was found to be 6.4 µM.
